Laboratory results as given in patent US11246945B2, “Cisplatin-loaded microbubbles, pharmaceutical composition for treatment of cancer, method for preparing pharmaceutical compositions and method for treating cancer” (National Defense Medical Center, priority 2019, dated 2022).

Legend:
[1] = test system: FaDu-fLuc/GFP tumor xenograft; assay: Anti-tumor effect on head and neck cancer xenograft (IVIS bioluminescence); format: in vivo, SCID mice; conditions: Day 33; without ultrasound exposure
Protocol: Severe combined immunodeficiency (SCID) mice were subcutaneously implanted with luminescence-labelled hypopharynx carcinoma cell line (FaDu-fLuc/GFP) (2×10^6 cells/mouse) into the right flank region on Day 0. On Day 4, tumor xenograft formation and size in implanted SCID mice were determined by IVIS® bioluminescence imaging system (version 4.4, Caliper Life Sciences, Alameda, Calif., USA). The implanted SCID mice were then classified into group I to group V (hereinafter referred to as “Gps I-V”), and the implanted SCID mice of each group were treated with different pharmaceutical compositions, which are summarized in Table 6 below. Specifically, the mice of Gp I was the control group, and was treated with saline. The mice of Gp II were treated with cisplatin dissolved in saline. The mice of Gp III were treated with saline containing the mixture of cisplatin and albumin microbubbles (concentration: 1.4×10^8 particles/mL), followed by ultrasound exposure (power: 3 W/cm^2, 30 seconds). […] The anti-tumor effect of cisplatin-based chemotherapy was evaluated in vivo on the growth of head and neck cancer by twice-weekly recordings of luciferase bioluminescence data derived from IVIS® images. On day 33, after the IVIS® images of the mice were obtained, the mice were sacrificed and analysed.

[2] = test system: head and neck cancers; conditions: patients with head and neck cancers; cited from earlier work
[3] = Body weight during the 33-day treatment; format: in vivo, SCID mice; conditions: 33-day treatment period; without ultrasound
Protocol: Severe combined immunodeficiency (SCID) mice were subcutaneously implanted with luminescence-labelled hypopharynx carcinoma cell line (FaDu-fLuc/GFP) (2×10^6 cells/mouse) into the right flank region on Day 0. On Day 4, tumor xenograft formation and size in implanted SCID mice were determined by IVIS® bioluminescence imaging system (version 4.4, Caliper Life Sciences, Alameda, Calif., USA). The implanted SCID mice were then classified into group I to group V (hereinafter referred to as “Gps I-V”), and the implanted SCID mice of each group were treated with different pharmaceutical compositions, which are summarized in Table 6 below. Specifically, the mice of Gp I was the control group, and was treated with saline. The mice of Gp II were treated with cisplatin dissolved in saline. The mice of Gp III were treated with saline containing the mixture of cisplatin and albumin microbubbles (concentration: 1.4×10^8 particles/mL), followed by ultrasound exposure (power: 3 W/cm^2, 30 seconds). […] The anti-tumor effect of cisplatin-based chemotherapy was evaluated in vivo on the growth of head and neck cancer by twice-weekly recordings of luciferase bioluminescence data derived from IVIS® images. On day 33, after the IVIS® images of the mice were obtained, the mice were sacrificed and analysed. […]

[4] = intraperitoneal, single 14 mg/kg or 4.6 mg/kg/day for three consecutive days; cited from earlier work

Structure (SMILES): N.N.[Cl][Pt][Cl] [CDDP, Cis-Diamine platinum (II) Dichloride]
- Tumor reduction / inhibition of tumor growth (luminescence flux) [1]: significantly better outcomes as compared to Gp IV
- Median survival time [2]: 151 days
- Body weight gain compared with Gp I, Gp IV and Gp V [3]: statistically smaller body weight gain
- Hearing threshold [4]: caused a hearing threshold shift
